Where two headings read alike, the source gives them in different places. Where a SMILES comes first, the peptide text is derived from it. Bridges are numbered along the chain shown (N, C = ends). [ ]: non-standard residue; d: D form. 2Nal = N[C@@H](Cc1ccc2ccccc2c1)C(=O)O; d2Nal = N[C@H](Cc1ccc2ccccc2c1)C(=O)O
Key:
rat NMB receptor = molecular target: T1, rat NMB receptor (Rattus norvegicus, UniProt P24053); assay: Binding of 125I-[D-Tyr0]NMB to NMB-R transfected BALB 3T3 cells; conditions: for Ki: NMB-R transfected BALB 3T3 cells, Ki by Cheng method, read-out: Ki 125I-NMB Binding, NMB Receptor, Transfected Cells; for fold decrease in NMB receptor affinity compared with cyclo SS-octa (#1): structure-function comparison from Table 1
T1 construct: a full length NMB-preferring bombesin receptor clone generated from rat esophagus; expressed in transfected cells
T1 sequence (P24053 1-390): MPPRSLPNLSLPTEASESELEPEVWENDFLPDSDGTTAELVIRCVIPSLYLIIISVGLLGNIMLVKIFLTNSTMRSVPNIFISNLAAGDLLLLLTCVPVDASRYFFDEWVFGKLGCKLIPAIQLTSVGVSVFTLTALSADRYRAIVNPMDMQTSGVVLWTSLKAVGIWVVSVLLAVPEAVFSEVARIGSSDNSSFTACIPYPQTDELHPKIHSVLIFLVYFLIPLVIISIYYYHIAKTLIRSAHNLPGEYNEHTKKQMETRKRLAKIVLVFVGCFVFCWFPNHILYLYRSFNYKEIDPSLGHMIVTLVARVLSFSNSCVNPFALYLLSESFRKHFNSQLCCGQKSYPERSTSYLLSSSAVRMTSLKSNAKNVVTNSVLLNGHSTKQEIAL
Method: (§1) Cells were passaged every 3-4 days at confluence, using 0.1% trypsin in 1 mM EDTA. Rat glioblastoma C-6 tumor cells were maintained similarly and were passaged weekly at confluence. Both cell lines were cultured at 37° C. in a 5% CO2 atmosphere. Rat AR 42J pancreatic acinar cells were cultured in Dulbecco's modified Eagle's medium (DMEM) without antibiotics and supplemented with 10% (vol/vol) fetal calf serum. The incubation atmosphere consisted of 10% CO2 -90% humidified air at 37° C.

[1] = molecular target: T2, GRP receptors on rat pancreatic acini (Rattus norvegicus, UniProt P52500); assay: Binding of 125I-[Tyr4]bombesin to pancreatic acini; conditions: read-out: Ki 125I-[Tyr4]Bn Binding, GRP Receptor, Rat Pancreatic Acini; Ki by Cheng method
T2 construct: from tissue; host or cells: dispersed pancreatic acini
T2 sequence (P52500 whole entry): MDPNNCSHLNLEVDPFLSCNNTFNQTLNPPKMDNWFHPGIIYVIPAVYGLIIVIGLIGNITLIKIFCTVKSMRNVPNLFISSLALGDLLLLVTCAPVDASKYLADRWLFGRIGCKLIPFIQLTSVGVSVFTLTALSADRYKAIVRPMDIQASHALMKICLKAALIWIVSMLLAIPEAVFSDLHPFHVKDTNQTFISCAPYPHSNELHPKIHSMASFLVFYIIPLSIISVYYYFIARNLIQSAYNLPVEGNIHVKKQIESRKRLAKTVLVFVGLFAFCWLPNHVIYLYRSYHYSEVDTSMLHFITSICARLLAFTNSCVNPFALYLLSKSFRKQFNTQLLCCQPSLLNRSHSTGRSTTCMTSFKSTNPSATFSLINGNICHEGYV
Text: Nonsaturable binding was<10% of total binding in all experiments.

somatostatin receptors = molecular target: T3, somatostatin receptors (Rattus norvegicus, UniProt P30680); assay: Somatostatin membrane receptor assay, 125I-[Tyr11]SS-14, AR 42J cell membranes; format: binding; conditions: Cheng method; table prints no unit (b360 gives nM for a Table 4 value); read-out: affinity, 125I-[Tyr11]SS-14, AR 42J Cell Membranes (somatostatin receptors)
T3 construct: endogenous in cells; host or cells: rat AR 42J pancreatic acinar tumor cell membranes
T3 sequence (P30680 whole entry): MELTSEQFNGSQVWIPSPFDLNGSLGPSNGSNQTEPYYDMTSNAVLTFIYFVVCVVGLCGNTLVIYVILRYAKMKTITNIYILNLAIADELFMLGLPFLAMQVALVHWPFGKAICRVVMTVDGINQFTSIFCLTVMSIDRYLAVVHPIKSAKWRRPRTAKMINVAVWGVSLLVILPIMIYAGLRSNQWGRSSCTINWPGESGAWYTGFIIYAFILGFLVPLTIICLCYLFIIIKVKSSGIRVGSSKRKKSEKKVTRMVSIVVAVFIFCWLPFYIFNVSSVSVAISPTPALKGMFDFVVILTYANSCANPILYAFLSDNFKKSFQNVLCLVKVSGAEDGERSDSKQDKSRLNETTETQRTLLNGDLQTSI

mu opioid receptors = molecular target: T4, mu opioid receptors (Rattus norvegicus, UniProt P33535); assay: Mu opioid membrane assay, [3H]DAGO, rat forebrain membranes; format: binding; conditions: Cheng method; unit inferred; read-out: affinity, [3H]DAGO, Rat Forebrain membranes (mu opioid receptors)
T4 construct: rat forebrain (TRH, mu and delta opioid membrane assays); from tissue; host or cells: rat forebrain membranes
T4 sequence (P33535 whole entry): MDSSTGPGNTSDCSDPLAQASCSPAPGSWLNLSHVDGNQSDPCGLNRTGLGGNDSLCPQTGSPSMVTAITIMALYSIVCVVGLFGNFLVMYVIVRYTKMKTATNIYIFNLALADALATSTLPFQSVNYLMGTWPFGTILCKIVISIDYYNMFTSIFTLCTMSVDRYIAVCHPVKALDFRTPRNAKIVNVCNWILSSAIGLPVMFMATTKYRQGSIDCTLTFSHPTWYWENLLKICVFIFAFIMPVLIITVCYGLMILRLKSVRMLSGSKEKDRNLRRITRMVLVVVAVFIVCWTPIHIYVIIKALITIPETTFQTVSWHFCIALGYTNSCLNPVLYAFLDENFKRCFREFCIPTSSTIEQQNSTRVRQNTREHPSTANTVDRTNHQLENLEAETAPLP

GRP receptor [2] = molecular target: T5, GRP receptor (Rattus norvegicus, UniProt P52500); assay: Amylase release from rat pancreatic acini (alone or Bn-stimulated); format: cell-based; set-up: from tissue; host or cells: dispersed pancreatic acini; conditions: for Amylase Release, analog Alone (10 μM): analog 10 μM alone, control 4 ± 1; for Amylase Release, analog Plus Bn (0.3 nM): analog 10 μM plus Bn 0.3 nM, Bn without analog 15 ± 1; for IC50: read-out: IC50 Amylase Release, GRP Receptor, Rat Pancreatic Acini
T5 sequence (P52500 whole entry): as the sequence (P52500 whole entry) above
Method: pancreatic acini or [^3 H]myo[2H]inositolloaded NMBR transfected cell
were incubated either with no additives, the somatostatin octapeptide
analog, Bn, or NMB, or a combination for 30 min at 37° C.. Amylase
release from pancreatic acini was expressed at the indicated percent of
the total cellular amylase released during the incubation. [^3 H]IP i
expressed in dpm's. To test for inhibitory effects, the effect of
somatostatin analog (10 μM) was determined on 0.3 nM Bnstimulated

GRP receptor [3] = molecular target: T5, GRP receptor; assay: GRP membrane receptor assay, 125I-[Tyr4]Bn, AR 42J cell membranes; format: binding; set-up: endogenous in cells; host or cells: rat AR 42J pancreatic acinar tumor cell membranes; conditions: read-out: affinity, 125I-[Tyr4]Bn, AR 42J Cell Membranes (GRP receptors); Cheng method; unit inferred
NMB receptor [4] = molecular target: T6, NMB receptor (Rattus norvegicus, UniProt P24053); assay: [3H]inositol phosphates in NMB-R transfected cells (alone or NMB-stimulated); format: cell-based; set-up: a full length NMB-preferring bombesin receptor clone generated from rat esophagus; expressed in transfected cells; conditions: NMB-R transfected cells; for IC50 / effect at 10 μM on NMB-stimulated increase in [3H]IP: 3 nM NMB; for [3H]IP, analog Alone (10 μM): analog 10 μM alone, control 13 ± 3; for [3H]IP, analog Plus NMB (3 nM): analog 10 μM plus NMB 3 nM, NMB without analog 186 ± 58
T6 sequence (P24053 1-390): T1 sequence (P24053 1-390)
Method: as §1, with “As described previously [Wada, E., et al. Neuron 6:421 (1991)], BALB 3T3 cells expressing a stably transfected rat NMB receptor (NMB-R transfected cells) were obtained using calcium phosphate precipitation of a full length NMB-preferring bombesin receptor clone generated from rat esophagus and subcloned into a modified version of the pCD2 plasmid. Cells” for “Cells”
Measurement of phosphoinositides
Total phosphoinositides in C-6 cells and in NMB-R transfected cells were determined as described previously, with minor modifications [Benya, R. V. et al. Mol. Pharmacol. 42:1058 (1992); and Wang, L-H. et al. Biochem. Jo 286:641 (1992)]. Cells were grown to confluence in 24-well plates and then loaded with 100 μCi/ml myo-[2-^3 H]inositol in Dulbecco's modified essential medium with 2% fetal bovine serum at 37° C. for 48 hrs. Cells were washed and incubated in phosphoinositide buffer (standard buffer additionally containing 10 mM LiCl, 20 mM HEPES, 2 mM CaCl2, 2% BSA, and 1.2 mM MgSO4) for 15 min and then for 60 min at 37° C. with agonists at various concentrations or with 3 nM NMB (a half-maximal effective concentration) and possible antagonists at different concentrations. Reactions were halted using ice-cold 1% HCl in methanol, and the inositol phosphates (IP) were isolated as described previously [Bologna, M. et al. Cancer 63:1714 (1989); and Endo, T. et al. J. Endocrinolo 131:313 (1991)]. Briefly, after loading of the anion exchange column, free [^3 H]glycerophosphorylinositol was removed by washing with 5 mM disodium tetraborate in 60 mM sodium formate. Total [^3 H]inositol phosphates were then eluted using 100 mM formic acid in 1.0M ammonium formate as described previously [Benya, R. V. et al. Mol. Pharmacol. 42:1058 (1992); and Wang, L-H. et al. Biochem. J. 286:641 (1992 )].

NMB receptor [5] = molecular target: T6, NMB receptor; assay: NMB membrane receptor assay, 125I-NMB, rat olfactory bulb membranes; format: binding; set-up: Membranes were prepared from rat olfactory bulb (NMB membrane receptor assay); from tissue; host or cells: rat olfactory bulb membranes; conditions: for Ki: Cheng method, unit inferred, read-out: affinity, 125I-NMB, Rat Olfactory bulb membranes (neuromedin B receptors)
[6] = read-out: IC50 NMB-stimulated [3H]IP, NMB Receptor, Transfected Cells

Row | Structure (SMILES) | Ki (rat NMB receptor) [nM] | Ki [1] [µM] | Ki (somatostatin receptors) [nM] | Ki (mu opioid receptors) [nM] | Amylase Release, analog Alone (10 μM) (GRP receptor [2]) [% total] | Amylase Release, analog Plus Bn (0.3 nM) (GRP receptor [2]) [% total] | IC50 (GRP receptor [2]) [µM] | Ki (GRP receptor [3]) [nM] | IC50 (NMB receptor [4]; [6]) [µM] | [3H]IP, analog Alone (10 μM) (NMB receptor [4]) [dym × 10^3] | [3H]IP, analog Plus NMB (3 nM) (NMB receptor [4]) [dym × 10^3] | Ki (NMB receptor [5]) [nM] | fold decrease in NMB receptor affinity compared with cyclo SS-octa (#1) (rat NMB receptor) [fold] | IC50 (NMB receptor [4]; read-out: IC50 NMB-stimulated [3H]IP, Transfected Cells (values in μM)) [µM] | effect at 10 μM on NMB-stimulated increase in [3H]IP (NMB receptor [4]) | fold greater affinity for NMB receptors than mu opioid receptors (NMB receptor [5]; membranes, Table 4) [fold]
1 | CC(C)[C@@H]1NC(=O)[C@H](CCCCN)NC(=O)[C@@H](Cc2c[nH]c3ccccc23)NC(=O)[C@H](Cc2ccc(O)cc2)NC(=O)[C@@H](NC(=O)[C@@H](N)Cc2ccc3ccccc3c2)CSSC[C@@H](C(=O)N[C@H](Cc2ccc3ccccc3c2)C(N)=O)NC1=O [Analog #9, H2 -Nal-Cys-Tyr-D-Trp-Lys-Val-Cys-D-Nal-NH2] (H-[2Nal]CY[dW]KVC[d2Nal]-NH2; disulfide 2-7) | 1160 ± 229 | > 10 | 2.8 ± 0.7 | 1160 | 3 ± 1 | 16 ± 1 | > 10 | 1540 ± 180 | 4.41 ± 0.451 | 8 ± 2 | 28 ± 6 | 590 ± 170 |  |  |  | 
2 | CC(C)[C@@H]1NC(=O)[C@H](CCCCN)NC(=O)[C@@H](Cc2c[nH]c3ccccc23)NC(=O)[C@H](Cc2ccc(O)cc2)NC(=O)[C@@H](NC(=O)[C@H](N)Cc2ccc3ccccc3c2)CSSC[C@H](C(=O)N[C@@H](Cc2ccc3ccccc3c2)C(N)=O)NC1=O [Analog #11, H2 -D-Nal-Cys-Tyr-D-Trp-Lys-Val-D-Cys-Nal-NH2] (H-[d2Nal]CY[dW]KV[dC][2Nal]-NH2; disulfide 2-7) | 1080 ± 199 | > 10 | 48 ± 3 | > 10000 | 2 ± 1 | 14 ± 1 | > 10 | 7620 ± 1260 | 1.43 ± 0.119 | 10 ± 1 | 7 ± 4 | 230 ± 70 | 5 | 1.2 to 1.8 | completely inhibited | > 50
3 | CC(C)[C@@H]1NC(=O)[C@H](CCCCN)NC(=O)[C@@H](Cc2c[nH]c3ccccc23)NC(=O)[C@H](Cc2ccc(O)cc2)NC(=O)[C@H](NC(=O)[C@H](N)Cc2ccc3ccccc3c2)CSSC[C@@H](C(=O)N[C@@H](Cc2ccc3ccccc3c2)C(N)=O)NC1=O [Analog #10, H2 -D-Nal-D-Cys-Tyr-D-Trp-Lys-Val-Cys-Nal-NH2] (H-[d2Nal][dC]Y[dW]KVC[2Nal]-NH2; disulfide 2-7) | 960 ± 109 | > 10 | 91 ± 23 | 1020 | 3 ± 1 | 16 ± 1 | > 10 | 1500 ± 160 | 3.99 ± 0.781 | 10 ± 3 | 4 ± 2 | 920 ± 350 | 5 |  | completely inhibited | 

From patent US5462926A (Biomeasure, Inc., priority 1993, dated 1995)
